US8415393B2, “Anti-bacterial drug targeting of genome maintenance interfaces” (Wisconsin Alumni Research Foundation, priority 2007, dated 2013)
Where a SMILES comes first, the peptide text is derived from it.

Columns and labels:
[1] = target: Topoisomerase III (TopoIII)/C-terminal tail of E. coli SSB (Escherichia coli, UniProt P14294); assay: Topoisomerase III peptide binding (fluorescence anisotropy); conditions: 100 μM final concentration, 1% DMSO
Method: TopoIII was titrated into 10 nM fluorescent peptide, as described above for the ExoI binding assays. The buffer conditions for this binding assay were: 300 mM NaCl, 20 mM Tris pH 8.0, 10% Glycerol, 1 mM BME (Beta-Mercaptoethanol), and 1% DMSO. Concentrations of TopoIII used are given on the graph in FIG. 24. Changes in anisotropy upon binding were read using PanVera Beacon 2000 FP.
Either unlabeled peptide or various compounds were then added to a final concentration of 100 μM. These compounds and unlabeled peptide were dissolved in DMSO and their addition brought the final concentration of DMSO to 1%.

ExoI nuclease activity = conditions: radiolabeled ssDNA substrate
PriA = PriA (Escherichia coli, UniProt P17888); conditions: read-out: Kd, app; SSB-Ct peptide binding by PriA; cited from earlier work
RecQ = RecQ (Escherichia coli, UniProt P15043); conditions: read-out: Kd, app; SSB-Ct peptide binding by RecQ; cited from earlier work
Chain of RecQ (P15043 whole entry): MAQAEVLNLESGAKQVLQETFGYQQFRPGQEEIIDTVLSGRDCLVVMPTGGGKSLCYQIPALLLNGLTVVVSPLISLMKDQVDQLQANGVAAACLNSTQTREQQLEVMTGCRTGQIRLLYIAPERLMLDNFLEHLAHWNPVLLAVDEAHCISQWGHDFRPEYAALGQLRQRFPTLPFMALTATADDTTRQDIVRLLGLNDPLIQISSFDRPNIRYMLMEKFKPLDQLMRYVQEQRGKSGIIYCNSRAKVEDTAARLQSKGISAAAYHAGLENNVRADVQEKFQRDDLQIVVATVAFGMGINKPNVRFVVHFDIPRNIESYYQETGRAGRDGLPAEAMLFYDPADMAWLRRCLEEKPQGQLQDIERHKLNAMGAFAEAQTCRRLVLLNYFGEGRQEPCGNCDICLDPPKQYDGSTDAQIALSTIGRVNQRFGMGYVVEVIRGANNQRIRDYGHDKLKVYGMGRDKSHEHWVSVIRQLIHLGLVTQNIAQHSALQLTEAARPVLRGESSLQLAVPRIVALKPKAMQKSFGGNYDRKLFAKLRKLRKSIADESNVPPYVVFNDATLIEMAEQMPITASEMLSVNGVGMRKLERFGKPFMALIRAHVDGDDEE

Chain of Topoisomerase III (TopoIII)/C-terminal tail of E. coli SSB (P14294 whole entry): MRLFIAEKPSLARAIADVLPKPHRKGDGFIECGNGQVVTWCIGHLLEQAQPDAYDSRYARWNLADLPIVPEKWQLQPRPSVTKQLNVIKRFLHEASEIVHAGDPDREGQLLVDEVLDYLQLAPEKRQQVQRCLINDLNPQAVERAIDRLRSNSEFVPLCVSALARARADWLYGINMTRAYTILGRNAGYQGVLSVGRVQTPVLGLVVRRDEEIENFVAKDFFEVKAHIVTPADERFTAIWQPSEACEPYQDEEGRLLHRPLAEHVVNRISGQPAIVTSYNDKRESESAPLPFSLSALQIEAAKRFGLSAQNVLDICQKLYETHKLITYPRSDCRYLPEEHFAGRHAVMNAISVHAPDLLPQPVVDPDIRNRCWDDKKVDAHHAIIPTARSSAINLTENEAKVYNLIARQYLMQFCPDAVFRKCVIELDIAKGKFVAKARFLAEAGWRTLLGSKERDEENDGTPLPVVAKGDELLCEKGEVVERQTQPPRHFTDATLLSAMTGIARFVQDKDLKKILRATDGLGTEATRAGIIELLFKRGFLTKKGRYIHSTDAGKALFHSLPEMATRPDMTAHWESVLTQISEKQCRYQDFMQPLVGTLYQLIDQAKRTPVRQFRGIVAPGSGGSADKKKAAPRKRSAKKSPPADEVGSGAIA
Chain of PriA (P17888 whole entry): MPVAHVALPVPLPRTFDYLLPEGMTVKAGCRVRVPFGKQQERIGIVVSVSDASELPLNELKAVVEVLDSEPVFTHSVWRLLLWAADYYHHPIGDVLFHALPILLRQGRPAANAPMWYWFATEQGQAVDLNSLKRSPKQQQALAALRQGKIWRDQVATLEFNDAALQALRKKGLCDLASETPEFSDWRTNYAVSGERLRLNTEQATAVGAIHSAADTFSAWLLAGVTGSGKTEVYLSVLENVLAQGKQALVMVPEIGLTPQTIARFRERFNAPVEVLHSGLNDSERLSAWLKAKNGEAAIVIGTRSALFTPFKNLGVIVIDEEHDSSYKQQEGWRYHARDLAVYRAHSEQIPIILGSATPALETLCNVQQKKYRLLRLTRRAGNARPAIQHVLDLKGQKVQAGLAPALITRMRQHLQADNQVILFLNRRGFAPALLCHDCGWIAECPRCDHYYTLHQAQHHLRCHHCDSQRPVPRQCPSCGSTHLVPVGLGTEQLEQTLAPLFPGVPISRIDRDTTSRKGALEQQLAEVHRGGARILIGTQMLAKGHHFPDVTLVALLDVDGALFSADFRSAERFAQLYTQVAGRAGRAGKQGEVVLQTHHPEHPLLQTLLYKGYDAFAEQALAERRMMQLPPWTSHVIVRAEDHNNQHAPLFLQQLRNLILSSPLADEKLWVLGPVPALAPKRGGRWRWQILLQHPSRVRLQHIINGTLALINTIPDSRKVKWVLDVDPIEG

For `CC[C@H](C)[C@H](NC(=O)[C@H](CC(=O)O)NC(=O)[C@H](CC(=O)O)NC(=O)[C@H](CC(=O)O)NC(=O)[C@H](Cc1ccccc1)NC(=O)[C@H](CC(=O)O)NC(=O)[C@H](CCSC)NC(=O)[C@@H](N)Cc1c[nH]c2ccccc12)C(=O)N1CCC[C@H]1C(=O)N[C@@H](Cc1ccccc1)C(=O)O` [WT peptide] (H-WMDFDDDIPF-OH; N-terminus assumed), the “inhibition of fluorescent peptide binding to TopoIII (anisotropy)” value [1] is given as “did not bring the anisotropy values down to the baseline”, the “SSB stimulation of ExoI nuclease activity” value (ExoI nuclease activity) is given as “no apparent effect” and the Kd (PriA) is given as 2 µM. For the same compound, the Kd (RecQ) was 6 µM.
